{"source": "paper PMC3119665", "about": "“A New Drug Design Targeting the Adenosinergic System for Huntington's Disease” (PLoS ONE, 2011)", "key": {"Sigma σ2": {"biological_target": "T1, Sigma σ2 (Rattus norvegicus, UniProt Q5U3Y7)", "T1 construct": "purchased MDS Pharma Services Taiwan", "T1 sequence (Q5U3Y7 whole entry)": "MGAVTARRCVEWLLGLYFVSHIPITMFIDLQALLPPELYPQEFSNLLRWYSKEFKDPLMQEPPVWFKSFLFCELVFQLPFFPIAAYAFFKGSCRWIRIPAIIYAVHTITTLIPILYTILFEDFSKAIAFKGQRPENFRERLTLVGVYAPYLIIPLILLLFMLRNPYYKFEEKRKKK", "assay": "Radioligand binding panel (Table S1)", "details": "10 μM T1-11, n 2"}, "Chemokine CX3CR1": {"biological_target": "T2, Chemokine CX3CR1 (Homo sapiens, UniProt P49238)", "T2 construct": "purchased MDS Pharma Services Taiwan", "T2 sequence (P49238 whole entry)": "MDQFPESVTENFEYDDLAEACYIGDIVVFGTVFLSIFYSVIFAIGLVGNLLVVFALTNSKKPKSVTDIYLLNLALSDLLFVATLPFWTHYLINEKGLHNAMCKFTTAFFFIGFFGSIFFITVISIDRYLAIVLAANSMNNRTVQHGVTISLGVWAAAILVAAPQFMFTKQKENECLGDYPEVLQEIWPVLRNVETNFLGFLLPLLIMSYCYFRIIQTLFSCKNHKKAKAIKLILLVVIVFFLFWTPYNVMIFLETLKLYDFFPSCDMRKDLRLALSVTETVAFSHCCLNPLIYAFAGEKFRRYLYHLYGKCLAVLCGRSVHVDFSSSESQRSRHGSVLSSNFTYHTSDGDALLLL", "assay": "Radioligand binding panel (Table S1)", "details": "10 μM T1-11, n 2"}, "Prostanoid EP2": {"biological_target": "T3, Prostanoid EP2 (Homo sapiens, UniProt P43116)", "T3 construct": "purchased MDS Pharma Services Taiwan", "assay": "Radioligand binding panel (Table S1)", "details": "10 μM T1-11, n 2"}, "Purinergic P 2X": {"test_system": "Purinergic P 2X", "assay": "Radioligand binding panel (Table S1)", "parameters": "species or system rabbit", "details": "10 μM T1-11, n 2"}, "Galanin GAL1": {"biological_target": "T4, Galanin GAL1 (Homo sapiens, UniProt P47211)", "T4 construct": "purchased MDS Pharma Services Taiwan", "assay": "Radioligand binding panel (Table S1)", "details": "10 μM T1-11, n 2"}, "Muscarinic M1": {"biological_target": "T5, Muscarinic M1 (Homo sapiens, UniProt P11229)", "T5 construct": "purchased MDS Pharma Services Taiwan", "T5 sequence (P11229 whole entry)": "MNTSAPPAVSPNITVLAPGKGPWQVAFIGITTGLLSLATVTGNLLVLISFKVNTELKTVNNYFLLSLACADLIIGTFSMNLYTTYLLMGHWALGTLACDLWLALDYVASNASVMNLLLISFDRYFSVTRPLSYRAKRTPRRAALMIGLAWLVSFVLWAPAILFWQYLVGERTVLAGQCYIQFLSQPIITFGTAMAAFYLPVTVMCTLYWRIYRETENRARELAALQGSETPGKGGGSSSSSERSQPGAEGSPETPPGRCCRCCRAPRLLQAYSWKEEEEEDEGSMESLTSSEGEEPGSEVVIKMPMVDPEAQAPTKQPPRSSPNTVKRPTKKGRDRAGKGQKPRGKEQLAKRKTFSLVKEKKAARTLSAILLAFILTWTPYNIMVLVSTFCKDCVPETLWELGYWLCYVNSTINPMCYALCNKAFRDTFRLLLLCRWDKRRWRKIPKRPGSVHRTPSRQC", "assay": "Radioligand binding panel (Table S1)", "details": "10 μM T1-11, n 2"}, "A2AR": {"biological_target": "T6, A2AR (Rattus norvegicus, UniProt P30543)", "T6 construct": "Treatment of PC12 cells with T1-11 dose-dependently elevated the cellular cAMP levels; endogenous in cells; host or cells: PC12", "T6 sequence (P30543 whole entry)": "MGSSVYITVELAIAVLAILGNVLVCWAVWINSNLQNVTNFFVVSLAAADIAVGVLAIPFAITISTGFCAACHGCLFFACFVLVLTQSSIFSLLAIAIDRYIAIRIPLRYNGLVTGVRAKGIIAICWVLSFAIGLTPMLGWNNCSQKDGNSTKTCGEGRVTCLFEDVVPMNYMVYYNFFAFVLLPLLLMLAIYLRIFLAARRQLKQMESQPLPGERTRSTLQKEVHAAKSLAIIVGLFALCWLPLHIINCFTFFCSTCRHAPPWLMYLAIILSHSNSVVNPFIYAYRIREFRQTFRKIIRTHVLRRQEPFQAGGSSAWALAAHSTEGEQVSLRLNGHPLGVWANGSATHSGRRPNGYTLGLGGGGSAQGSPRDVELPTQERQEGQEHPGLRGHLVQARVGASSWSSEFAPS", "assay": "cAMP assay in PC12 cells", "type": "cell-based", "protocol": "PC12 cells were plated at the density of 5×10^5 cells/well (on 12-well plates) and incubated with the indicated reagent(s) for the desired period of time. Cells were washed twice with ice-cold Locke's solution (150 mM NaCl, 5.6 mM KCl, 5 mM glucose, 1 mM MgCl2, and 10 mM HEPES, adjusted to pH 7.4). Cellular cAMP was extracted by adding 0.3 ml of 0.1 M HCl to each well and incubating this for 10 min on ice."}, "Orexin OX 1": {"biological_target": "T7, Orexin OX 1 (Homo sapiens, UniProt O43613)", "T7 construct": "purchased MDS Pharma Services Taiwan", "assay": "Radioligand binding panel (Table S1)", "details": "10 μM T1-11, n 2"}, "Dopamine D4.4": {"biological_target": "T8, Dopamine D4.4 (Homo sapiens, UniProt P21917)", "T8 construct": "purchased MDS Pharma Services Taiwan", "T8 sequence (P21917 whole entry)": "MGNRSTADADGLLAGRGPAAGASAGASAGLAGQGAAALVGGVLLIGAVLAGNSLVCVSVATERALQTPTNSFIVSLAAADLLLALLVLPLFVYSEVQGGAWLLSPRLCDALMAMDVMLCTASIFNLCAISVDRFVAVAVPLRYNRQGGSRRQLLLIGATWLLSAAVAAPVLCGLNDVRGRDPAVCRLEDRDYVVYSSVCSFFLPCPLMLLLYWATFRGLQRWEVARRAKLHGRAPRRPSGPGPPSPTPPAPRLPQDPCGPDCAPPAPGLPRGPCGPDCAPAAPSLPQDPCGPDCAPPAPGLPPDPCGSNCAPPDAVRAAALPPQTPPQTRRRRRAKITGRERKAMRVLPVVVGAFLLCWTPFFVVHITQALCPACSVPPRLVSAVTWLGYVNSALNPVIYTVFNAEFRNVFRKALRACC", "assay": "Radioligand binding panel (Table S1)", "details": "10 μM T1-11, n 2"}, "[1]": {"biological_target": "T9, Nicotinic Acetylcholine α1, Bungarotoxin (Homo sapiens, UniProt P02708+P07510+Q07001)", "T9 construct": "purchased MDS Pharma Services Taiwan", "assay": "Radioligand binding panel (Table S1)"}, "[2]": {"biological_target": "T10, Leukotriene, Cysteinyl CysLT2 (Homo sapiens, UniProt Q9NS75)", "T10 construct": "purchased MDS Pharma Services Taiwan", "assay": "Radioligand binding panel (Table S1)", "details": "10 μM T1-11, n 2"}, "Tachykinin NK1": {"biological_target": "T11, Tachykinin NK1 (Homo sapiens, UniProt P25103)", "T11 construct": "purchased MDS Pharma Services Taiwan", "assay": "Radioligand binding panel (Table S1)", "details": "10 μM T1-11, n 2"}, "[3]": {"test_system": "Glutamate, NMDA, Phencyclidine", "assay": "Radioligand binding panel (Table S1)", "parameters": "species or system rat", "details": "10 μM T1-11, n 2"}, "Chemokine CCR2B": {"biological_target": "T12, Chemokine CCR2B (Homo sapiens, UniProt P41597)", "T12 construct": "purchased MDS Pharma Services Taiwan", "T12 sequence (P41597 1-360 isoform P41597-2)": "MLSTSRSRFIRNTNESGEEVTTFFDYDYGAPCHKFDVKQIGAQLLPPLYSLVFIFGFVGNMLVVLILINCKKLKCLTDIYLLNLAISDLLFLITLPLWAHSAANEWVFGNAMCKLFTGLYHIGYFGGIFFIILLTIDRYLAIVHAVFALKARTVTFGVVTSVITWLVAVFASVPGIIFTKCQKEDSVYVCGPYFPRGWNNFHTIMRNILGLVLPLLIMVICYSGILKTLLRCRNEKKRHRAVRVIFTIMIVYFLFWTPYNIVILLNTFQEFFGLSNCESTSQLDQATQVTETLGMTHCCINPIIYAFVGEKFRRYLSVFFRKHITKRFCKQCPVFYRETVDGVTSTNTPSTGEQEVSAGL", "assay": "Radioligand binding panel (Table S1)", "details": "10 μM T1-11, n 2"}, "Potassium Channel [SKCA]": {"test_system": "Potassium Channel [SKCA]", "assay": "Radioligand binding panel (Table S1)", "parameters": "species or system rat", "details": "10 μM T1-11, n 2"}, "Adrenomedullin AM1": {"biological_target": "T13, Adrenomedullin AM1 (Homo sapiens, UniProt O60895+Q16602)", "T13 construct": "purchased MDS Pharma Services Taiwan", "assay": "Radioligand binding panel (Table S1)", "details": "10 μM T1-11, n 2"}, "Adrenergic α 2A": {"biological_target": "T14, Adrenergic α 2A (Homo sapiens, UniProt P08913)", "T14 construct": "purchased MDS Pharma Services Taiwan", "T14 sequence (P08913 whole entry)": "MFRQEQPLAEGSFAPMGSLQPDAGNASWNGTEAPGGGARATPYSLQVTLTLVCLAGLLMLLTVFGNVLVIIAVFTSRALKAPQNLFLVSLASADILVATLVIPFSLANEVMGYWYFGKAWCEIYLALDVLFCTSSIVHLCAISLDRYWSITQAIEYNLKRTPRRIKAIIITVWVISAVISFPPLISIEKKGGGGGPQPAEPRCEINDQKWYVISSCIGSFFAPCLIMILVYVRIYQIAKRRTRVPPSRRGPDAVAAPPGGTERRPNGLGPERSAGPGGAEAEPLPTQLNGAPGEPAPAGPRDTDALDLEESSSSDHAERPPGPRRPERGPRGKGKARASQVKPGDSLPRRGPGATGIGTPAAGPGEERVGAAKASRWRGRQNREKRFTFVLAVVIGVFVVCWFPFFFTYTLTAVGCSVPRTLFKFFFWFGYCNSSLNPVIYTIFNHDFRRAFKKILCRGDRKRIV", "assay": "Radioligand binding panel (Table S1)", "details": "10 μM T1-11, n 2"}, "Transporter, Glycin.e": {"test_system": "Transporter, Glycin.e", "assay": "Radioligand binding panel (Table S1)", "parameters": "species or system rat", "details": "10 μM T1-11, n 2"}, "GABAB1B": {"biological_target": "T15, GABAB1B (Homo sapiens, UniProt Q9UBS5)", "T15 construct": "purchased MDS Pharma Services Taiwan", "assay": "Radioligand binding panel (Table S1)", "details": "10 μM T1-11, n 2"}, "[4]": {"test_system": "Inositol Trisphosphate IP3", "assay": "Radioligand binding panel (Table S1)", "parameters": "species or system rat", "details": "10 μM T1-11, n 2"}, "Dopamine D2L": {"biological_target": "T16, Dopamine D2L (Homo sapiens, UniProt P14416)", "T16 construct": "purchased MDS Pharma Services Taiwan", "T16 sequence (P14416 whole entry)": "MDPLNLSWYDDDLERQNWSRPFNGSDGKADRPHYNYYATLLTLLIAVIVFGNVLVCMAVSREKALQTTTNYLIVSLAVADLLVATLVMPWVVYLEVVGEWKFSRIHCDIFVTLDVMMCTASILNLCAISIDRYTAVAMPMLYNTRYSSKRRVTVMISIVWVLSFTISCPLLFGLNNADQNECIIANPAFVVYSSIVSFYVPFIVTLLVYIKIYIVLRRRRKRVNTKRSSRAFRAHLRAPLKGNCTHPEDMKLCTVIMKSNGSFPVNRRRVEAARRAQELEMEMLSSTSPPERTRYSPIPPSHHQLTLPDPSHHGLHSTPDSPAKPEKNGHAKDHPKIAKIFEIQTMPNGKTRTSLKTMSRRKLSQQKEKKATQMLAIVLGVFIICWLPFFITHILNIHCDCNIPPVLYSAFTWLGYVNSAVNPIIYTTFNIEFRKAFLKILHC", "assay": "Radioligand binding panel (Table S1)", "details": "10 μM T1-11, n 2"}, "Interleukin IL-1": {"biological_target": "T17, Interleukin IL-1 (Mus musculus, UniProt P13504)", "T17 construct": "purchased MDS Pharma Services Taiwan", "assay": "Radioligand binding panel (Table S1)", "details": "10 μM T1-11, n 2"}, "Adrenergic α 1A": {"biological_target": "T18, Adrenergic α 1A (Rattus norvegicus, UniProt P43140)", "T18 construct": "purchased MDS Pharma Services Taiwan", "assay": "Radioligand binding panel (Table S1)", "details": "10 μM T1-11, n 2"}, "[5]": {"test_system": "Melatonin MT, Non-Selective", "assay": "Radioligand binding panel (Table S1)", "parameters": "species or system chicken", "details": "10 μM T1-11, n 2"}, "[6]": {"test_system": "GABAA, Chloride Channel, TBPS", "assay": "Radioligand binding panel (Table S1)", "parameters": "species or system rat", "details": "10 μM T1-11, n 2"}, "Aldosterone": {"biological_target": "T19, Aldosterone (Rattus norvegicus, UniProt P22199)", "T19 construct": "purchased MDS Pharma Services Taiwan", "assay": "Radioligand binding panel (Table S1)", "details": "10 μM T1-11, n 2"}, "Melatonin MT1": {"biological_target": "T20, Melatonin MT1 (Homo sapiens, UniProt P48039)", "T20 construct": "purchased MDS Pharma Services Taiwan", "assay": "Radioligand binding panel (Table S1)", "details": "10 μM T1-11, n 2"}, "[7]": {"test_system": "Glutamate, NMDA, Polyamine", "assay": "Radioligand binding panel (Table S1)", "parameters": "species or system rat", "details": "10 μM T1-11, n 2"}, "Phorbol Ester": {"test_system": "Phorbol Ester", "assay": "Radioligand binding panel (Table S1)", "parameters": "species or system mouse", "details": "10 μM T1-11, n 2"}, "GABAB1A": {"biological_target": "T21, GABAB1A (Homo sapiens, UniProt Q9UBS5)", "T21 construct": "purchased MDS Pharma Services Taiwan", "T21 sequence (Q9UBS5 15-961 limits assumed)": "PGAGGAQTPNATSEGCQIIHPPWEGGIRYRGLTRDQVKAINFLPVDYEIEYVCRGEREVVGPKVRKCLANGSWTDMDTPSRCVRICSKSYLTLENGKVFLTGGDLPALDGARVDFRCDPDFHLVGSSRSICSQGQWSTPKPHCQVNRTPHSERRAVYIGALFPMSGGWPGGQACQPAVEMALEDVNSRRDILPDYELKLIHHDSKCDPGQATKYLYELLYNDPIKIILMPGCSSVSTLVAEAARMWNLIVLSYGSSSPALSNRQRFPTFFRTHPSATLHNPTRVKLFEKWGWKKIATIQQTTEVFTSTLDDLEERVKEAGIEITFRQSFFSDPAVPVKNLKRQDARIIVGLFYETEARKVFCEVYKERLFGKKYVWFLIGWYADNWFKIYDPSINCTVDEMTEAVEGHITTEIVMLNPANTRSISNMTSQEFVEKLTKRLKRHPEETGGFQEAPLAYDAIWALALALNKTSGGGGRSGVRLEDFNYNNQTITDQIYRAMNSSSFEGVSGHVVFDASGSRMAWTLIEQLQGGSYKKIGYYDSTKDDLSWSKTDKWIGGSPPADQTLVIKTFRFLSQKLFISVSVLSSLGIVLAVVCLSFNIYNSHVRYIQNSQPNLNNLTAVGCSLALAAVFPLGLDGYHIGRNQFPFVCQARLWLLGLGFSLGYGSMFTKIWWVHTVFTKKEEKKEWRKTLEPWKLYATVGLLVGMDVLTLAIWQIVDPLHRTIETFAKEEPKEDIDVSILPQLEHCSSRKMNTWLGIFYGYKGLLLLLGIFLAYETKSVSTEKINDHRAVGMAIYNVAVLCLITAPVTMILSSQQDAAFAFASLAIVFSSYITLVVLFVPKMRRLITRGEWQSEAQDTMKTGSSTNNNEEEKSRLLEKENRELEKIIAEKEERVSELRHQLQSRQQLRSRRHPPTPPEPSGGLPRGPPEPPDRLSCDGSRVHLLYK", "T21 sequence (O75899 42-941 partner)": "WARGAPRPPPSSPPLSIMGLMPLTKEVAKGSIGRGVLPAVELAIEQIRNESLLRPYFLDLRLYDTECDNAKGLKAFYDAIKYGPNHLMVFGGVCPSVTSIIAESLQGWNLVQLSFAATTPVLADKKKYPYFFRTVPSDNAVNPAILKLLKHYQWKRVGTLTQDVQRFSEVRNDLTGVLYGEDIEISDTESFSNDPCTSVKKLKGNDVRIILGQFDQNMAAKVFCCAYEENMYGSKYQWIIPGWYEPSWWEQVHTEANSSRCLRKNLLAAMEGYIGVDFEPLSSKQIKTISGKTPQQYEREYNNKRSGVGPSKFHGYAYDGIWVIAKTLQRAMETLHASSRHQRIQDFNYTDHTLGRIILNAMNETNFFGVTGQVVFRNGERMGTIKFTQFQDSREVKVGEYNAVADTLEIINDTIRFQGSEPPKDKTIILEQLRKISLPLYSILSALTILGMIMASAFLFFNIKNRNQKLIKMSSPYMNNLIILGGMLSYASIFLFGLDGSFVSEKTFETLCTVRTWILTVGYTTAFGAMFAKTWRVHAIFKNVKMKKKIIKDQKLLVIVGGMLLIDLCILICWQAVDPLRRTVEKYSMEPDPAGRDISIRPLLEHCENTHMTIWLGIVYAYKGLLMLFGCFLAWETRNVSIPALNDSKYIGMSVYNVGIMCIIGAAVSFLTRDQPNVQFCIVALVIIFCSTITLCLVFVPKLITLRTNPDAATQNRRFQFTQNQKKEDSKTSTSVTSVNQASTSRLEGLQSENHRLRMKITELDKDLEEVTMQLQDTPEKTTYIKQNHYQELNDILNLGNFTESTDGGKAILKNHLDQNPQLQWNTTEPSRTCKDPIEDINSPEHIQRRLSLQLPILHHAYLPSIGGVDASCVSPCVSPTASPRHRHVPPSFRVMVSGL", "assay": "Radioligand binding panel (Table S1)", "details": "10 μM T1-11, n 2"}, "[8]": {"biological_target": "T22, Leukotriene, Cysteinyl CysLT1 (Homo sapiens, UniProt Q9Y271)", "T22 construct": "purchased MDS Pharma Services Taiwan", "assay": "Radioligand binding panel (Table S1)", "details": "10 μM T1-11, n 2"}, "Ryanodine RyR3": {"biological_target": "T23, Ryanodine RyR3 (Rattus norvegicus, UniProt A0ABK0LPH6)", "T23 construct": "purchased MDS Pharma Services Taiwan", "assay": "Radioligand binding panel (Table S1)", "details": "10 μM T1-11, n 2"}, "Motilin": {"biological_target": "T24, Motilin (Homo sapiens, UniProt O43193)", "T24 construct": "purchased MDS Pharma Services Taiwan", "assay": "Radioligand binding panel (Table S1)", "details": "10 μM T1-11, n 2"}, "Melatonin MT2": {"biological_target": "T25, Melatonin MT2 (Homo sapiens, UniProt P49286)", "T25 construct": "purchased MDS Pharma Services Taiwan", "assay": "Radioligand binding panel (Table S1)", "details": "10 μM T1-11, n 2"}, "Tachykinin NK2": {"biological_target": "T26, Tachykinin NK2 (Homo sapiens, UniProt P21452)", "T26 construct": "purchased MDS Pharma Services Taiwan", "assay": "Radioligand binding panel (Table S1)", "details": "10 μM T1-11, n 2"}, "[9]": {"biological_target": "T27, Transporter, Norepinephrine (NET) (Homo sapiens, UniProt P23975)", "T27 construct": "purchased MDS Pharma Services Taiwan", "assay": "Radioligand binding panel (Table S1)", "details": "10 μM T1-11, n 2"}, "Potassium Channel [KA]": {"test_system": "Potassium Channel [KA]", "assay": "Radioligand binding panel (Table S1)", "parameters": "species or system rat", "details": "10 μM T1-11, n 2"}, "[10]": {"test_system": "Adrenergic α 1, Non-Selective", "assay": "Radioligand binding panel (Table S1)", "parameters": "species or system rat", "details": "10 μM T1-11, n 2"}}}
{"compound": "OC[C@H]1O[C@@H](n2cnc3c(NCc4ccc(O)cc4)ncnc32)[C@H](O)[C@@H]1O", "note": "[T1-11, N ^6-(4-hydroxybenzyl)adenine riboside]", "values": [{"measurement": "inhibition at 10 µM", "setting": "Sigma σ2", "value": -3, "unit": "%"}, {"measurement": "inhibition at 10 µM", "setting": "Chemokine CX3CR1", "value": -1, "unit": "%"}, {"measurement": "inhibition at 10 µM", "setting": "Prostanoid EP2", "value": 10, "unit": "%"}, {"measurement": "% Inhibition", "setting": "Purinergic P 2X", "value": 11, "unit": "%"}, {"measurement": "inhibition at 10 µM", "setting": "Galanin GAL1", "value": 0, "unit": "%"}, {"measurement": "inhibition at 10 µM", "setting": "Muscarinic M1", "value": -1, "unit": "%"}, {"measurement": "Function", "setting": "A2AR; A2A adenosine receptor, elevates cellular cAMP levels", "value": "agonist"}, {"measurement": "EC50", "setting": "A2AR; PC12 cells, 20 min at RT, read-out: EC50, elevation of cellular cAMP levels", "value": "~2200", "unit": "nM"}, {"measurement": "inhibition at 10 µM", "setting": "Orexin OX 1", "value": -13, "unit": "%"}, {"measurement": "inhibition at 10 µM", "setting": "Dopamine D4.4", "value": 8, "unit": "%"}, {"measurement": "inhibition at 10 µM", "setting": "[1]", "value": 3, "unit": "%"}, {"measurement": "inhibition at 10 µM", "setting": "[2]", "value": 10, "unit": "%"}, {"measurement": "inhibition at 10 µM", "setting": "Tachykinin NK1", "value": 3, "unit": "%"}, {"measurement": "% Inhibition", "setting": "[3]", "value": -2, "unit": "%"}, {"measurement": "inhibition at 10 µM", "setting": "Chemokine CCR2B", "value": 0, "unit": "%"}, {"measurement": "% Inhibition", "setting": "Potassium Channel [SKCA]", "value": 1, "unit": "%"}, {"measurement": "inhibition at 10 µM", "setting": "Adrenomedullin AM1", "value": 11, "unit": "%"}, {"measurement": "inhibition at 10 µM", "setting": "Adrenergic α 2A", "value": -8, "unit": "%"}, {"measurement": "% Inhibition", "setting": "Transporter, Glycin.e", "value": 1, "unit": "%"}, {"measurement": "inhibition at 10 µM", "setting": "GABAB1B", "value": -5, "unit": "%"}, {"measurement": "% Inhibition", "setting": "[4]", "value": 3, "unit": "%"}, {"measurement": "inhibition at 10 µM", "setting": "Dopamine D2L", "value": 13, "unit": "%"}, {"measurement": "inhibition at 10 µM", "setting": "Interleukin IL-1", "value": 4, "unit": "%"}, {"measurement": "inhibition at 10 µM", "setting": "Adrenergic α 1A", "value": -14, "unit": "%"}, {"measurement": "% Inhibition", "setting": "[5]", "value": -3, "unit": "%"}, {"measurement": "% Inhibition", "setting": "[6]", "value": 6, "unit": "%"}, {"measurement": "inhibition at 10 µM", "setting": "Aldosterone", "value": 2, "unit": "%"}, {"measurement": "inhibition at 10 µM", "setting": "Melatonin MT1", "value": -4, "unit": "%"}, {"measurement": "% Inhibition", "setting": "[7]", "value": 10, "unit": "%"}, {"measurement": "% Inhibition", "setting": "Phorbol Ester", "value": 9, "unit": "%"}, {"measurement": "inhibition at 10 µM", "setting": "GABAB1A", "value": -1, "unit": "%"}, {"measurement": "inhibition at 10 µM", "setting": "[8]", "value": -4, "unit": "%"}, {"measurement": "inhibition at 10 µM", "setting": "Ryanodine RyR3", "value": -1, "unit": "%"}, {"measurement": "inhibition at 10 µM", "setting": "Motilin", "value": -2, "unit": "%"}, {"measurement": "inhibition at 10 µM", "setting": "Melatonin MT2", "value": -20, "unit": "%"}, {"measurement": "inhibition at 10 µM", "setting": "Tachykinin NK2", "value": 3, "unit": "%"}, {"measurement": "inhibition at 10 µM", "setting": "[9]", "value": 6, "unit": "%"}, {"measurement": "% Inhibition", "setting": "Potassium Channel [KA]", "value": 1, "unit": "%"}, {"measurement": "% Inhibition", "setting": "[10]", "value": -3, "unit": "%"}]}
